From US5972893A, “Method of treating hyperprolactinemia and prolactinomas” (Cedars-Sinai Medical Center, priority 1997, dated 1999)
pKi: −log10 of the molar value. Positions of bridges follow the written chain, without caps; N, C: chain ends. Non-standard residues stand in square brackets, D forms with d. Residues, ends and D or L forms follow the SMILES beside them.

Tests used:
[1] = system: cells derived from prolactin-secreting pituitary adenomas; assay: Reduction of prolactin secretion from prolactinoma cell cultures; assay type: cell-based, human; conditions: for effect on prolactin release (in words): tumor 1 adenomatous cell cultures, 10-100 nM; for effect on prolactin release (in words) / suppression of prolactin secretion: 3 hours; for suppression of prolactin release / effect on prolactin production (in words): large tumor 4 cell cultures; for suppression of prolactin secretion: tumor 1 cell cultures; for response of cells from the four large male tumors (in words): tumors 1, 2, 3 and 4 (macroprolactinomas of male patients)
human SSTR-1 = human SSTR-1 (Homo sapiens, UniProt P30872); assay: Somatostatin receptor binding assay, hSSTR-1
Chain of human SSTR-1 (P30872 whole entry): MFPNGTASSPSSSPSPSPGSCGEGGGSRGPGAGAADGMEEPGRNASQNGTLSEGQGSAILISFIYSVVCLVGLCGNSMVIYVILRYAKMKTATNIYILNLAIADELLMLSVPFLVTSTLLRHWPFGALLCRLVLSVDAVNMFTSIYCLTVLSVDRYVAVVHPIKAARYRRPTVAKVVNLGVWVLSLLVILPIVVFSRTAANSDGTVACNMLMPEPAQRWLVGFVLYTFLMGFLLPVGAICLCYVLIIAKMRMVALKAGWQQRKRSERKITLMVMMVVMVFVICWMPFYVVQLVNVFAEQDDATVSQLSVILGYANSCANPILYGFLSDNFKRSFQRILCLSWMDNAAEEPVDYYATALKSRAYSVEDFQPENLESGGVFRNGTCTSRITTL

human SSTR-3 = human SSTR-3 (Homo sapiens, UniProt P32745); assay: Somatostatin receptor binding assay, hSSTR-3
Chain of human SSTR-3 (P32745 whole entry): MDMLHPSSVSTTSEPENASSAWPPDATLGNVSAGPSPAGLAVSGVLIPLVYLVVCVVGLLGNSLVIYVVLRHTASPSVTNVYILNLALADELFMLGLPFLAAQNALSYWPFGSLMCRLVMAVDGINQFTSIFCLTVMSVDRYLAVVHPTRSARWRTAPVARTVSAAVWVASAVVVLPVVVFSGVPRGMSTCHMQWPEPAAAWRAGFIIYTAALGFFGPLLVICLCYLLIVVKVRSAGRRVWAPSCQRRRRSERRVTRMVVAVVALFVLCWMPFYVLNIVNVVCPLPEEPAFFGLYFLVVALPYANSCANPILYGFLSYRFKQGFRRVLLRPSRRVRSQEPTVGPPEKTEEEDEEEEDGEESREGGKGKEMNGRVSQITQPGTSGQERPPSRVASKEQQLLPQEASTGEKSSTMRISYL

| SMILES | effect on prolactin release (in words) [1] | response of cells from the four large male tumors (in words) [1] | other results |
| --- | --- | --- | --- |
| CC[C@@H]1NC(=O)[C@H](CCCCN)NC(=O)[C@@H](Cc2c[nH]c3ccccc23)NC(=O)[C@H](Cc2ccc(O)cc2)NC(=O)[C@@H](NC(=O)[C@H](N)Cc2ccccc2)CSSC[C@@H](C(=O)N[C@H](C(N)=O)[C@@H](C)O)NC1=O [BIM-23023] | did not affect prolactin release | – | – |
| C[C@@H](O)[C@H](NC(=O)[C@H](Cc1ccccc1)NC(=O)[C@@H](NC(=O)[C@H](CCCCN)NC(=O)[C@@H](Cc1c[nH]c2ccccc12)NC(=O)[C@H](Cc1ccccc1)NC(=O)[C@H](Cc1ccccc1)NC(=O)[C@H](N)Cc1ccccc1)[C@@H](C)O)C(N)=O [BIM-23052, H-D-Phe-Phe-Phe-D-Trp-Lys-Thr-Phe-Thr-NH2] (H-[dF]FF[dW]KTFT-NH2) | – | suppression of prolactin secretion | suppression of prolactin release ([1]; p<0.05): more than 30%; suppression of prolactin secretion ([1]; 10 nM, p<0.05): 33% |
| CC[C@@H]1NC(=O)[C@H](CCCCN)NC(=O)[C@@H](Cc2c[nH]c3ccccc23)NC(=O)[C@H](Cc2ccc(O)cc2)NC(=O)[C@@H](NC(=O)[C@@H](Cc2ccccc2)NC(=O)CN2CCN(CCO)CC2)CSSC[C@@H](C(=O)N[C@H](C(N)=O)[C@@H](C)O)NC1=O [BIM-23190] | did not affect prolactin release | failed to respond | effect on prolactin production (in words) [1]: modestly stimulated prolactin production |
| CC[C@@H]1NC(=O)[C@H](CCCCN)NC(=O)[C@@H](Cc2c[nH]c3ccccc23)NC(=O)[C@H](Cc2ccc(O)cc2)NC(=O)[C@@H](NC(=O)[C@@H](Cc2ccccc2)NS(=O)(=O)CCN2CCN(CCO)CC2)CSSC[C@@H](C(=O)N[C@H](C(N)=O)[C@@H](C)O)NC1=O [BIM-23197] | did not affect prolactin release | failed to respond | effect on prolactin production (in words) [1]: modestly stimulated prolactin production |
| C[C@@H](O)[C@@H]1NC(=O)[C@H](CCCCN)NC(=O)[C@@H](Cc2c[nH]c3ccccc23)NC(=O)[C@H](Cc2ccccc2)NC(=O)[C@H](Cc2ccccc2)NC(=O)[C@@H](N)CSSC[C@@H](C(N)=O)NC(=O)[C@H](Cc2ccccc2)NC1=O [BIM-23268, H-Cys-Phe-Phe-D-Trp-Lys-Thr-Phe-Cys-NH2] (H-CFF[dW]KTFC-NH2; disulfide 1-8) | – | suppression of prolactin secretion | suppression of prolactin ([1]; large tumor 3 cell cultures, 10 nM and 100 nM, dose dependent, p<0.05): up to 29%; suppression of prolactin release ([1]; p<0.05): more than 30%; suppression of prolactin secretion ([1]; 10 nM, p<0.05): 36%; inhibition of prolactin release versus controls ([1]; tumor 2 cell cultures, 10 nM, p<0.0005): 38% |
| CC(C)[C@@H]1NC(=O)[C@H](CCCCN)NC(=O)[C@@H](Cc2c[nH]c3ccccc23)NC(=O)[C@H](Cc2ccc(O)cc2)NC(=O)[C@@H](NC(=O)[C@H](N)Cc2ccc3ccccc3c2)CSSC[C@@H](C(=O)N[C@H](C(N)=O)[C@@H](C)O)NC1=O [Lanreotide] | did not affect prolactin release | failed to respond | pKi (human SSTR-1): 5.62; pKi (human SSTR-3): 7.01 |
| C[C@@H](O)[C@@H]1NC(=O)[C@H](CCCCN)NC(=O)[C@@H](Cc2c[nH]c3ccccc23)NC(=O)[C@H](Cc2ccccc2)NC(=O)[C@@H](NC(=O)[C@H](N)Cc2ccccc2)CSSC[C@@H](C(=O)N[C@H](CO)[C@@H](C)O)NC1=O [Octreotide] | – | failed to respond | – |
